Test results reported in US20260022142A1, “MACROCYCLIC IMMUNOMODULATORS” (Bristol-Myers Squibb Company, priority 2022, published 2026).
Numbered stars: 1 amine (or outer) side, 2 acyl side, 3 side chain; on linkers, the order of the positions; unused ones are H or OH. Bridge positions count the residues as written; N and C are the ends. Square brackets hold non-standard residues; d marks the D form. Peptide text beside a SMILES is read from it. * marks the point of attachment. ξ: configuration not given here. Phe(3-CF3) = N[C@@H](Cc1cccc(C(F)(F)F)c1)C(=O)O; Phe(4-COOH) = N[C@@H](Cc1ccc(C(=O)O)cc1)C(=O)O; Bip = N[C@@H](Cc1ccc(-c2ccccc2)cc1)C(=O)O; NH(CH2)14COOH = O=C(O)CCCCCCCCCCCCCCN*; Phe(3-Me) = Cc1cccc(C[C@H](N)C(=O)O)c1; γGlu = O=C(O)[C@H](CCC(=O)[*:2])N[*:1]; NH(CH2)12COOH = O=C(O)CCCCCCCCCCCCN*; Val(3-OH) = CC(C)(O)[C@H](N)C(=O)O; mTyr = N[C@@H](Cc1cccc(O)c1)C(=O)O; hArg = N=C(N)NCCCC[C@H](N)C(=O)O; 3Thi = N[C@@H](Cc1ccsc1)C(=O)O; Cha = N[C@@H](CC1CCCCC1)C(=O)O; Cit = NC(=O)NCCC[C@H](N)C(=O)O; aThr = C[C@H](O)[C@H](N)C(=O)O; Thr(3ξ) = CC(O)[C@H](N)C(=O)O; 12Ado = NCCCCCCCCCCCC(=O)O; dDab = NCC[C@@H](N)C(=O)O; hSer = N[C@@H](CCO)C(=O)O; Carboxymethyl = O=C(O)C*; Orn = NCCC[C@H](N)C(=O)O; Aun = NCCCCCCCCCCC(=O)O; Dab = NCC[C@H](N)C(=O)O; Dap = NC[C@H](N)C(=O)O; AEEA = NCCOCCOCC(=O)O; Ac3c = NC1(C(=O)O)CC1

Molecular target: T1, PD-1/PD-L1 interaction (PE-labeled human PD-L1-Ig binding to Jurkat cell line over-expressing human PD-1) (Homo sapiens, UniProt Q15116)
T1 construct: expressed in transfected cells; host or cells: Jurkat
T1 sequence (Q15116 25-288): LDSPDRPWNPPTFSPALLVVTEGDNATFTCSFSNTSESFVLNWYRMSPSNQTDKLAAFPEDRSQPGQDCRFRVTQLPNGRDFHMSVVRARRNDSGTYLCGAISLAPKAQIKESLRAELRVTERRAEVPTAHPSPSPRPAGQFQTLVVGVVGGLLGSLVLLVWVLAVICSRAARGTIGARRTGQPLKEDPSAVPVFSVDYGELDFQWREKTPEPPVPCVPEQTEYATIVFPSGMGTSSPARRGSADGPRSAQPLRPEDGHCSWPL
Assay: Jurkat-PD-1 Cell Binding High-Content Screening Assay (CBA)
Format: cell-based
Settings: Jurkat cell line over-expressing human PD-1; PE-labeled PD-L1-Ig 20 nM final; read-out: Jurkat hPD1-PDL1 IC50
Method in brief: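 Binding of fluorescent PD-L1-Ig (phycoerythrin on Ig tag, 20 nM final, 1 h) measured by high-content imaging of fixed, Hoechst-counterstained Jurkat-hPD-1 cells. Compound added 2 h at 37° C beforehand, in DMEM with 10% fetal calf serum.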

Row | IC50 [nM] | SMILES
1 | 3.1 | Cc1cccc(C[C@@H]2NC(=O)[C@H](CC(=O)O)NC(=O)[C@H](Cc3ccc(OCC(=O)O)cc3)NC(=O)[C@H](CCCNC(=N)N)NC(=O)CSC[C@@H](C(=O)NC3(C(=O)NCCCCCCCCCCC(=O)O)CC3)NC(=O)[C@H](CCCN)NC(=O)[C@H](C(C)C)NC(=O)[C@H](CC3CCCCC3)NC(=O)[C@H](CCN)NC(=O)[C@@H](CC(C)C)NC(=O)[C@H](CCCN)NC(=O)[C@H](Cc3ccc(OCC(=O)O)cc3)NC(=O)[C@H](Cc3ccc(-c4ccccc4)cc3)NC(=O)[C@H](Cc3ccc(OCC(=O)O)cc3)NC2=O)c1 [Compound 2136] ({CH2CO}-RY(Carboxymethyl)D[Phe(3-Me)]Y(Carboxymethyl)[Bip]Y(Carboxymethyl)[Orn][dL][Dab][Cha]V[Orn]C[Ac3c][Aun]-OH; thioether N-14)
2 | 6.3 | Cc1cccc(C[C@@H]2NC(=O)[C@H](CC(=O)O)NC(=O)[C@H](Cc3ccc(OCC(=O)O)cc3)NC(=O)[C@H](CN)NC(=O)CSC[C@@H](C(=O)NC3(C(=O)NCCOCCOCC(=O)NCCCCCCCCCCC(=O)O)CC3)NC(=O)[C@H](CCCN)NC(=O)[C@H](C(C)C)NC(=O)[C@H](CC3CCCCC3)NC(=O)[C@H](CCN)NC(=O)[C@@H](CC(C)C)NC(=O)[C@H](CCCN)NC(=O)[C@H](Cc3ccc(O)cc3)NC(=O)[C@H](Cc3ccc(-c4ccccc4)cc3)NC(=O)[C@H](Cc3ccc(O)cc3)NC2=O)c1 [Compound 2077] ({CH2CO}-[Dap]Y(Carboxymethyl)D[Phe(3-Me)]Y[Bip]Y[Orn][dL][Dab][Cha]V[Orn]C[Ac3c][AEEA][Aun]-OH; thioether N-14)
3 | 6.6 | Cc1cccc(C[C@@H]2NC(=O)[C@H](CC(=O)O)NC(=O)[C@H](Cc3ccc(OCC(=O)O)cc3)NC(=O)[C@H](CCCNC(=N)N)NC(=O)CSC[C@@H](C(=O)N[C@@H](CCN)C(=O)NCCCCCCCCCCC(=O)O)NC(=O)[C@H](CCO)NC(=O)[C@H](C(C)C)NC(=O)[C@H](CC3CCCCC3)NC(=O)[C@H](CCN)NC(=O)[C@@H](CC(C)C)NC(=O)[C@H](CCCN)NC(=O)[C@H](Cc3ccc(OCC(=O)O)cc3)NC(=O)[C@H](Cc3ccc(-c4ccccc4)cc3)NC(=O)[C@H](Cc3ccc(OCC(=O)O)cc3)NC2=O)c1 [Compound 2094] ({CH2CO}-RY(Carboxymethyl)D[Phe(3-Me)]Y(Carboxymethyl)[Bip]Y(Carboxymethyl)[Orn][dL][Dab][Cha]V[hSer]C[Dab][Aun]-OH; thioether N-14)
4 | 27.4 | CC(=O)NCCCC[C@@H]1NC(=O)[C@H](C(C)(C)O)NC(=O)[C@H](CC2CCCCC2)NC(=O)[C@H](CCN)NC(=O)[C@@H](CC(C)C)NC(=O)[C@H](CCCN)NC(=O)[C@H](Cc2ccc(OCC(=O)O)cc2)NC(=O)[C@H](Cc2ccc(-c3ccccc3)cc2)NC(=O)[C@H](Cc2ccc(C(=O)O)cc2)NC(=O)[C@H](Cc2cccc(C(F)(F)F)c2)NC(=O)[C@H](CC(=O)O)NC(=O)[C@H](Cc2ccc(OCC(=O)O)cc2)NC(=O)[C@H]([C@H](C)O)NC(=O)CSC[C@@H](C(=O)N[C@H](CCN)C(=O)NCCOCCOCC(=O)N[C@@H](CCC(=O)NCCOCCOCC(=O)NCCCCCCCCCCCCC(=O)O)C(=O)O)NC1=O [Compound 3899] ({CH2CO}-[aThr]Y(Carboxymethyl)D[Phe(3-CF3)][Phe(4-COOH)][Bip]Y(Carboxymethyl)[Orn][dL][Dab][Cha][Val(3-OH)]K(Ac)C[dDab][AEEA][γGlu][AEEA]-{NH(CH2)12COOH}; thioether N-14)
5 | 41.5 | Cc1cccc(C[C@@H]2NC(=O)[C@H](CC(=O)O)NC(=O)[C@H](Cc3ccc(OCC(=O)O)cc3)NC(=O)[C@H](CCN)NC(=O)CSC[C@@H](C(=O)N[C@@H](CCN)C(=O)NCCOCCOCC(=O)NCCOCCOCC(=O)N[C@@H](CC(=O)NCCCCCCCCCCCCCCC(=O)O)C(=O)O)NC(=O)[C@H](Cc3c[nH]cn3)NC(=O)[C@H](C(C)(C)O)NC(=O)[C@H](CC3CCCCC3)NC(=O)[C@H](CCN)NC(=O)[C@@H](CC(C)C)NC(=O)[C@H](CCCN)NC(=O)[C@H](Cc3ccc(C(=O)O)cc3)NC(=O)[C@H](Cc3ccc(-c4ccccc4)cc3)NC(=O)[C@H](Cc3ccc(C(=O)O)cc3)NC2=O)c1 [Compound 1252] ({CH2CO}-[Dab]Y(Carboxymethyl)D[Phe(3-Me)][Phe(4-COOH)][Bip][Phe(4-COOH)][Orn][dL][Dab][Cha][Val(3-OH)]HC[Dab][AEEA][AEEA]D(NH(CH2)14COOH)-OH; thioether N-14)

The remaining lines, values behind:

Row | SMILES | IC50 [nM]
6 | CC(C)C[C@H]1NC(=O)[C@H](CCN)NC(=O)[C@H](C(C)C)NC(=O)[C@H](Cc2ccc(-c3ccccc3)cc2)NC(=O)[C@H](C(C)C)NC(=O)[C@H](Cc2c[nH]c3ccccc23)NC(=O)[C@H](CC(=O)O)NC(=O)[C@H](Cc2ccc(OCC(=O)O)cc2)NC(=O)[C@H](Cc2ccsc2)NC(=O)CSC[C@@H](C(=O)NCCOCCOCC(=O)NCCCCCCCCCCC(=O)O)NC(=O)[C@H](C(C)O)NC(=O)[C@H](C(C)C)NC(=O)[C@H](CC2CCCCC2)NC(=O)[C@H](CCN)NC1=O (stereo partly drawn) [Compound 3280] ({CH2CO}-[3Thi]Y(Carboxymethyl)DWV[Bip]V[Dab][dL][Dab][Cha]V[Thr(3ξ)]C[AEEA][Aun]-OH; thioether N-14) | 42.2
7 | Cc1cccc(C[C@@H]2NC(=O)[C@H](CC(=O)O)NC(=O)[C@H](Cc3ccc(OCC(=O)O)cc3)NC(=O)[C@H](CCCCNC(=N)N)NC(=O)CSC[C@@H](C(=O)N[C@@H](CCCN)C(=O)N[C@@H](CO)C(=O)NCCCCCCCCCCCC(=O)O)NC(=O)[C@H](C(C)O)NC(=O)[C@H](C(C)C)NC(=O)[C@H](CC3CCCCC3)NC(=O)[C@H](CCN)NC(=O)[C@@H](CC(C)C)NC(=O)[C@H](CCCN)NC(=O)[C@H](CCCNC(=N)N)NC(=O)[C@H](Cc3ccc(-c4ccccc4)cc3)NC(=O)[C@H](C(C)C)NC2=O)c1 (stereo partly drawn) [Compound 3575] ({CH2CO}-[hArg]Y(Carboxymethyl)D[Phe(3-Me)]V[Bip]R[Orn][dL][Dab][Cha]V[Thr(3ξ)]C[Orn]S[12Ado]-OH; thioether N-14) | 32.3
8 | CC(C)C[C@H]1NC(=O)[C@H](CCCN)NC(=O)[C@H](C(C)C)NC(=O)[C@H](Cc2ccc(-c3ccccc3)cc2)NC(=O)[C@H](C(C)C)NC(=O)[C@H](Cc2c[nH]c3ccccc23)NC(=O)[C@H](CC(=O)O)NC(=O)[C@H](Cc2ccc(C(=O)O)cc2)NC(=O)[C@H](C(C)O)NC(=O)CSC[C@@H](C(=O)N[C@@H](C)C(=O)N[C@@H](CCCCN)C(=O)NCCCCCCCCCCCCCCC(=O)O)NC(=O)[C@H](C(C)O)NC(=O)[C@H](C(C)C)NC(=O)[C@H](CC2CCCCC2)NC(=O)[C@H](CCN)NC1=O (stereo partly drawn) [Compound 3021] ({CH2CO}-[Thr(3ξ)][Phe(4-COOH)]DWV[Bip]V[Orn][dL][Dab][Cha]V[Thr(3ξ)]CAK-{NH(CH2)14COOH}; thioether N-14) | 130
9 | Cc1cccc(C[C@@H]2NC(=O)[C@H](CC(=O)O)NC(=O)[C@H](Cc3ccc(OCC(=O)O)cc3)NC(=O)[C@H](CN)NC(=O)CSC[C@@H](C(=O)N[C@@H](CCCN)C(=O)NCCCCCCCCCCCCC(=O)O)NC(=O)[C@H](C(C)O)NC(=O)[C@H](C(C)C)NC(=O)[C@H](CC3CCCCC3)NC(=O)[C@H](CCN)NC(=O)[C@@H](CC(C)C)NC(=O)[C@H](CCCN)NC(=O)[C@H](CCCNC(N)=O)NC(=O)[C@H](Cc3ccc(-c4ccccc4)cc3)NC(=O)[C@H](C(C)C)NC2=O)c1 (stereo partly drawn) [Compound 3123] ({CH2CO}-[Dap]Y(Carboxymethyl)D[Phe(3-Me)]V[Bip][Cit][Orn][dL][Dab][Cha]V[Thr(3ξ)]C[Orn]-{NH(CH2)12COOH}; thioether N-14) | 82.9
10 | Cc1cccc(C[C@@H]2NC(=O)[C@H](CC(=O)O)NC(=O)[C@H](Cc3ccc(OCC(=O)O)cc3)NC(=O)[C@H](CN)NC(=O)CSC[C@@H](C(=O)N[C@@H](CCN)C(=O)NCCCCCCCCCCC(=O)O)NC(=O)[C@@H](CCC(=O)O)NC(=O)[C@H](C(C)C)NC(=O)[C@H](CC3CCCCC3)NC(=O)[C@H](CCN)NC(=O)[C@@H](CC(C)C)NC(=O)[C@H](CCCN)NC(=O)[C@H](Cc3ccc(O)cc3)NC(=O)[C@H](Cc3ccc(-c4ccccc4)cc3)NC(=O)[C@H](C(C)C)NC2=O)c1 [Compound 2756] ({CH2CO}-[Dap]Y(Carboxymethyl)D[Phe(3-Me)]V[Bip]Y[Orn][dL][Dab][Cha]V[dE]C[Dab][Aun]-OH; thioether N-14) | 40.7
11 | CC(C)C[C@H]1NC(=O)[C@H](CCN)NC(=O)[C@H](Cc2ccc(O)cc2)NC(=O)[C@H](Cc2ccc(-c3ccccc3)cc2)NC(=O)[C@H](Cc2ccc(O)cc2)NC(=O)[C@H](Cc2cccc(O)c2)NC(=O)[C@H](CC(=O)O)NC(=O)[C@H](Cc2ccc(OCC(=O)O)cc2)NC(=O)[C@H](CN)NC(=O)CSC[C@@H](C(=O)N[C@@H](CCN)C(=O)NCCCCCCCCCCC(=O)O)NC(=O)[C@@H](CCN)NC(=O)[C@H](C(C)C)NC(=O)[C@H](CC2CCCCC2)NC(=O)[C@H](CCN)NC1=O [Compound 2080] ({CH2CO}-[Dap]Y(Carboxymethyl)D[mTyr]Y[Bip]Y[Dab][dL][Dab][Cha]V[dDab]C[Dab][Aun]-OH; thioether N-14) | 218
12 | CC(C)C[C@H]1NC(=O)[C@H](CCCN)NC(=O)[C@H](C(C)C)NC(=O)[C@H](Cc2ccc(-c3ccccc3)cc2)NC(=O)[C@H](C(C)C)NC(=O)[C@H](Cc2c[nH]c3ccccc23)NC(=O)[C@H](CC(=O)O)NC(=O)[C@H](Cc2ccc(OCC(=O)O)cc2)NC(=O)[C@H](C(C)O)NC(=O)CSC[C@@H](C(=O)N[C@H](CC(N)=O)C(=O)NCCOCCOCC(=O)NCCCCCCCCCCC(=O)O)NC(=O)[C@H](CO)NC(=O)[C@H](C(C)C)NC(=O)[C@H](CC2CCCCC2)NC(=O)[C@H](CCN)NC1=O (stereo partly drawn) [Compound 3053] ({CH2CO}-[Thr(3ξ)]Y(Carboxymethyl)DWV[Bip]V[Orn][dL][Dab][Cha]VSC[dN][AEEA][Aun]-OH; thioether N-14) | 8.8
